Measured values reported in US9302999B2, “Substituted triazoles as herbicides” (E. I. DU PONT DE NEMOURS AND COMPANY, priority 2012, dated 2016).

Legend:
Type in all cases: in vivo
[1] = tested on: wheat, winter (winter wheat, Triticum aestivum); experiment: Test D pre-/postemergence: wheat, winter
Description: (§1) Seeds of plant species selected from bluegrass (annual bluegrass, Poa annua), blackgrass (Alopecurus myosuroides), canarygrass (Phalaris minor), chickweed (common chickweed, Stellaria media), galium (catchweed bedstraw, Galium aparine), bromegrass, downy (downy bromegrass, Bromus tectorum), field poppy (Papaver rhoeas), field violet (Viola arvensis), foxtail, green (green foxtail, Setaria viridis), deadnettle (henbit deadnettle, Lamium amplexicaule), ryegrass, Italian (Italian ryegrass, Lolium multiflorum), kochia (Kochia scoparia), lambsquarters (Chenopodium album), oilseed rape (Brassica napus), pigweed (Amaranthus retroflexus), Russian thistle (Salsola iberica), chamomile (scentless chamomile, Matricaria inodora), speedwell (bird's-eye speedwell, Veronica persica), barley, spring (spring barley, Hordeum vulgare), wheat, spring (spring wheat, Triticum aestivum), buckwheat, wild (wild buckwheat, Polygonum convolvulus), mustard, wild (wild mustard, Sinapis arvensis), oat, wild (wild oat, Avena fatua), radish, wild (wild radish, Raphanus raphanistrum), windgrass (Apera spica-venti), barley, winter (winter barley, Hordeum vulgare), and wheat, winter (winter wheat, Triticum aestivum) were planted into a silt loam soil and treated preemergence with test chemicals formulated in a non-phytotoxic solvent mixture which included a surfactant. At the same time, these same crop and weed species were planted in pots containing the planting medium comprising spaghnum peat moss, vermiculite, wetting agent and starter nutrients and treated with postemergence applications of the test chemicals formulated in the same manner. Plants ranged in height from 2 to 18 cm (1- to 4-leaf stage).
(§2) Treated plants and controls were maintained in a controlled growth environment for 14 to 21 days after which time all species were compared to controls and visually evaluated. Plant response ratings, summarized in Table D, are based on a scale of 0 to 100 where 0 is no effect and 100 is complete control. A dash (-) response means no test result.

[2] = tested on: mustard, wild (wild mustard, Sinapis arvensis); experiment: Test D pre-/postemergence: mustard, wild
Description: as §1, §2

[3] = tested on: oat, wild (wild oat, Avena fatua); experiment: Test D pre-/postemergence: oat, wild
Description: as §1, §2

[4] = tested on: oilseed rape (Brassica napus); experiment: Test D pre-/postemergence: oilseed rape
Description: as §1, §2

[5] = tested on: foxtail, green (green foxtail, Setaria viridis); experiment: Test D pre-/postemergence: foxtail, green
Description: as §1, §2

[6] = Postemergence, 31 g ai/ha, scale 0 to 100 (0 no effect, 100 complete control)
[7] = Postemergence, 62 g ai/ha, scale 0 to 100 (0 no effect, 100 complete control)
[8] = Postemergence, 125 g ai/ha, scale 0 to 100, 0 no effect, 100 complete control
[9] = Postemergence, 250 g ai/ha, scale 0 to 100 (0 no effect, 100 complete control)
[10] = Preemergence, 31 g ai/ha, scale 0 to 100, 0 no effect, 100 complete control
[11] = Preemergence, 62 g ai/ha, scale 0 to 100
[12] = Preemergence, 125 g ai/ha, scale 0 to 100
[13] = Preemergence, 250 g ai/ha, scale 0 to 100
[14] = Postemergence, 16 g ai/ha, scale 0 to 100

SMILES: FC(F)(F)COc1nn(-c2ccc(C(F)(F)F)cc2)nc1Cc1ccnc(C(F)(F)F)c1 [Compound 14, 4-[[5-(2,2,2-trifluoroethoxy)-2-[4-(trifluoromethyl)phenyl]-2H-1,2,3-triazol-4-yl]methyl]-2-(trifluoromethyl)pyridine]
- Plant response rating: Wheat, Winter [1, 6]: 5
- Plant response rating: Wheat, Winter [1, 7]: 5
- Plant response rating: Wheat, Winter [1, 8]: 15
- Plant response rating: Wheat, Winter [1, 9]: 25
- Plant response rating, Wheat, Winter [1, 10]: 0
- Plant response rating, Wheat, Winter [1, 11]: 0
- Plant response rating, Wheat, Winter [1, 12]: 10
- Plant response rating, Wheat, Winter [1, 13]: 20
- Plant response rating: Mustard, Wild [2, 6]: 50
- Plant response rating: Mustard, Wild [2, 7]: 90
- Plant response rating: Mustard, Wild [2, 8]: 100
- Plant response rating: Mustard, Wild [2, 9]: 100
- Plant response rating, Mustard, Wild [2, 10]: 0
- Plant response rating, Mustard, Wild [2, 11]: 50
- Plant response rating, Mustard, Wild [2, 12]: 90
- Plant response rating, Mustard, Wild [2, 13]: 95
- Plant response rating: Oat, Wild [3, 6]: 15
- Plant response rating: Oat, Wild [3, 7]: 25
- Plant response rating: Oat, Wild [3, 8]: 40
- Plant response rating: Oat, Wild [3, 9]: 55
- Plant response rating, Oat, Wild [3, 10]: 0
- Plant response rating, Oat, Wild [3, 11]: 20
- Plant response rating, Oat, Wild [3, 12]: 20
- Plant response rating, Oat, Wild [3, 13]: 50
- Plant response rating: Oilseed Rape [4, 6]: 30
- Plant response rating: Oilseed Rape [4, 7]: 70
- Plant response rating: Oilseed Rape [4, 8]: 90
- Plant response rating: Oilseed Rape [4, 9]: 100
- Plant response rating, Oilseed Rape [4, 10]: 0
- Plant response rating, Oilseed Rape [4, 11]: 0
- Plant response rating, Oilseed Rape [4, 12]: 30
- Plant response rating, Oilseed Rape [4, 13]: 40
- Plant response rating: Foxtail, Green [5, 6]: 10
- Plant response rating: Foxtail, Green [5, 7]: 25
- Plant response rating: Foxtail, Green [5, 8]: 30
- Plant response rating: Foxtail, Green [5, 9]: 95
- Plant response rating, Foxtail, Green [5, 10]: 0
- Plant response rating, Foxtail, Green [5, 11]: 10
- Plant response rating, Foxtail, Green [5, 12]: 75
- Plant response rating, Foxtail, Green [5, 13]: 100

SMILES: COc1nn(-c2ccc(C(F)(F)F)cc2)nc1Cc1ccnc(C(F)(F)F)c1 [Compound 15, 4-[[5-methoxy-2-[4-(trifluoromethyl)phenyl]-2H-1,2,3-triazol-4-yl]methyl]-2-(trifluoromethyl)pyridine]
- Plant response rating: Wheat, Winter [1, 6]: 10
- Plant response rating: Wheat, Winter [1, 7]: 15
- Plant response rating: Wheat, Winter [1, 8]: 25
- Plant response rating: Wheat, Winter [1, 9]: 35
- Plant response rating, Wheat, Winter [1, 14]: 5
- Plant response rating, Wheat, Winter [1, 10]: 0
- Plant response rating, Wheat, Winter [1, 11]: 0
- Plant response rating, Wheat, Winter [1, 12]: 0
- Plant response rating, Wheat, Winter [1, 13]: 5
- Plant response rating: Mustard, Wild [2, 6]: 70
- Plant response rating: Mustard, Wild [2, 7]: 100
- Plant response rating: Mustard, Wild [2, 8]: 100
- Plant response rating: Mustard, Wild [2, 9]: 100
- Plant response rating, Mustard, Wild [2, 14]: 0
- Plant response rating, Mustard, Wild [2, 10]: 100
- Plant response rating, Mustard, Wild [2, 11]: 100
- Plant response rating, Mustard, Wild [2, 12]: 100
- Plant response rating, Mustard, Wild [2, 13]: 100
- Plant response rating: Oat, Wild [3, 6]: 10
- Plant response rating: Oat, Wild [3, 7]: 10
- Plant response rating: Oat, Wild [3, 8]: 30
- Plant response rating: Oat, Wild [3, 9]: 40
- Plant response rating, Oat, Wild [3, 14]: 10
- Plant response rating, Oat, Wild [3, 11]: 15
- Plant response rating, Oat, Wild [3, 12]: 40
- Plant response rating, Oat, Wild [3, 13]: 100
- Plant response rating: Oilseed Rape [4, 6]: 100
- Plant response rating: Oilseed Rape [4, 7]: 70
- Plant response rating: Oilseed Rape [4, 8]: 100
- Plant response rating: Oilseed Rape [4, 9]: 100
- Plant response rating, Oilseed Rape [4, 14]: 70
- Plant response rating, Oilseed Rape [4, 10]: 0
- Plant response rating, Oilseed Rape [4, 11]: 10
- Plant response rating, Oilseed Rape [4, 12]: 20
- Plant response rating, Oilseed Rape [4, 13]: 75
- Plant response rating: Foxtail, Green [5, 6]: 30
- Plant response rating: Foxtail, Green [5, 7]: 80
- Plant response rating: Foxtail, Green [5, 8]: 75
- Plant response rating: Foxtail, Green [5, 9]: 100
- Plant response rating, Foxtail, Green [5, 14]: 15
- Plant response rating, Foxtail, Green [5, 10]: 70
- Plant response rating, Foxtail, Green [5, 11]: 100
- Plant response rating, Foxtail, Green [5, 12]: 100
- Plant response rating, Foxtail, Green [5, 13]: 100

SMILES: Cc1nn(-c2ccc(C(F)(F)F)cn2)nc1Oc1ccnc(C(F)(F)F)c1 [Compound 23]
- Plant response rating: Wheat, Winter [1, 6]: 5
- Plant response rating: Wheat, Winter [1, 7]: 10
- Plant response rating: Wheat, Winter [1, 8]: 15
- Plant response rating: Wheat, Winter [1, 9]: 15
- Plant response rating, Wheat, Winter [1, 14]: 0
- Plant response rating: Mustard, Wild [2, 6]: 40
- Plant response rating: Mustard, Wild [2, 7]: 85
- Plant response rating: Mustard, Wild [2, 8]: 100
- Plant response rating: Mustard, Wild [2, 9]: 100
- Plant response rating, Mustard, Wild [2, 14]: 20
- Plant response rating: Oat, Wild [3, 6]: 10
- Plant response rating: Oat, Wild [3, 7]: 10
- Plant response rating: Oat, Wild [3, 8]: 15
- Plant response rating: Oat, Wild [3, 9]: 20
- Plant response rating, Oat, Wild [3, 14]: 10
- Plant response rating: Oilseed Rape [4, 6]: 50
- Plant response rating: Oilseed Rape [4, 7]: 75
- Plant response rating: Oilseed Rape [4, 8]: 85
- Plant response rating: Oilseed Rape [4, 9]: 95
- Plant response rating, Oilseed Rape [4, 14]: 50
- Plant response rating: Foxtail, Green [5, 6]: 15
- Plant response rating: Foxtail, Green [5, 7]: 20
- Plant response rating: Foxtail, Green [5, 8]: 25
- Plant response rating: Foxtail, Green [5, 9]: 25
- Plant response rating, Foxtail, Green [5, 14]: 15

SMILES: Cc1nn(-c2ccc(C(F)(F)F)cn2)nc1Cc1cccc(C(F)(F)F)c1 [Compound 106]
- Plant response rating: Wheat, Winter [1, 6]: 5
- Plant response rating: Wheat, Winter [1, 7]: 5
- Plant response rating: Wheat, Winter [1, 8]: 5
- Plant response rating: Wheat, Winter [1, 9]: 5
- Plant response rating, Wheat, Winter [1, 14]: 5
- Plant response rating, Wheat, Winter [1, 10]: 0
- Plant response rating, Wheat, Winter [1, 11]: 0
- Plant response rating, Wheat, Winter [1, 12]: 0
- Plant response rating, Wheat, Winter [1, 13]: 0
- Plant response rating: Mustard, Wild [2, 6]: 80
- Plant response rating: Mustard, Wild [2, 7]: 80
- Plant response rating: Mustard, Wild [2, 8]: 90
- Plant response rating: Mustard, Wild [2, 9]: 100
- Plant response rating, Mustard, Wild [2, 14]: 20
- Plant response rating, Mustard, Wild [2, 10]: 20
- Plant response rating, Mustard, Wild [2, 11]: 50
- Plant response rating, Mustard, Wild [2, 12]: 50
- Plant response rating, Mustard, Wild [2, 13]: 60
- Plant response rating: Oat, Wild [3, 6]: 5
- Plant response rating: Oat, Wild [3, 7]: 5
- Plant response rating: Oat, Wild [3, 8]: 5
- Plant response rating: Oat, Wild [3, 9]: 20
- Plant response rating, Oat, Wild [3, 14]: 0
- Plant response rating, Oat, Wild [3, 10]: 0
- Plant response rating, Oat, Wild [3, 11]: 0
- Plant response rating, Oat, Wild [3, 12]: 10
- Plant response rating, Oat, Wild [3, 13]: 10
- Plant response rating: Oilseed Rape [4, 6]: 10
- Plant response rating: Oilseed Rape [4, 7]: 10
- Plant response rating: Oilseed Rape [4, 8]: 80
- Plant response rating: Oilseed Rape [4, 9]: 95
- Plant response rating, Oilseed Rape [4, 14]: 10
- Plant response rating, Oilseed Rape [4, 10]: 10
- Plant response rating, Oilseed Rape [4, 11]: 10
- Plant response rating, Oilseed Rape [4, 12]: 10
- Plant response rating, Oilseed Rape [4, 13]: 20
- Plant response rating: Foxtail, Green [5, 6]: 10
- Plant response rating: Foxtail, Green [5, 7]: 20
- Plant response rating: Foxtail, Green [5, 8]: 30
- Plant response rating: Foxtail, Green [5, 9]: 40
- Plant response rating, Foxtail, Green [5, 14]: 0
- Plant response rating, Foxtail, Green [5, 10]: 0
- Plant response rating, Foxtail, Green [5, 11]: 0
- Plant response rating, Foxtail, Green [5, 12]: 0
- Plant response rating, Foxtail, Green [5, 13]: 100
